Reference: ChEMBL document CHEMBL1128978, “1-Hydroxy-1,4-dihydroquinoxaline-2,3-diones: Novel antagonists at NMDA receptor glycine sites” (Bioorg Med Chem Lett, 1996)

Assay: Electrophysiological assays in Xenopus oocytes expressing cloned NMDA receptor (NR1A/2C)
Format: cell-based
Details: Rattus norvegicus, Oocyte

Row | SMILES | IC50 [nM]
1 | Oc1nc2cc(Cl)c(Cl)c(Br)c2nc1O | 210
2 | O=c1[nH]c2c(Br)cc(Br)cc2n(O)c1=O | 20000
3 | Oc1nc2cc(Br)cc(Br)c2nc1O | 1300
4 | O=c1[nH]c2c(Cl)cc(C(F)(F)F)cc2n(O)c1=O | 25000
5 | O=c1[nH]c2c(Br)cc(C(F)(F)F)cc2n(O)c1=O | 54000
6 | Oc1nc2cc(Cl)cc(Cl)c2nc1O | 280
7 | Nc1c(Cl)c(Cl)cc2c1[nH]c(=O)c(=O)n2O | 1800
8 | Oc1nc2cc(C(F)(F)F)cc(Br)c2nc1O | 2500
9 | Oc1nc2cc(Cl)c(Cl)cc2nc1O [2,3-DIHYDROXY-6,7-DICHLOROQUINOXALINE] | 130
10 | O=c1[nH]c2c(Cl)cc(Cl)cc2n(O)c1=O | 19000
11 | O=c1[nH]c2cc(Cl)c(Cl)cc2n(O)c1=O | 80
12 | O=c1[nH]c2c(Cl)c(Cl)c(Cl)cc2n(O)c1=O | 2500
13 | Nc1c(Cl)c(Cl)cc2nc(O)c(O)nc12 | 93
14 | O=c1[nH]c2c(Br)c(Cl)c(Cl)cc2n(O)c1=O | 2700
15 | Oc1nc2cc(C(F)(F)F)cc(Cl)c2nc1O | 2100
16 | Oc1nc2cc(Cl)c(Cl)c(Cl)c2nc1O | 30
